Assay results from patent publication US9738634B2, “Heterocyclic amide compound and herbicide” (SYNGENTA PARTICIPATIONS AG, priority 2013, dated 2017).

Key:
Assay type in all cases: in vivo
soybean [1] = assay: Test Example 3: soil treatment, effect on crop; d: soybean; details: treatment dosage 315 g/ha
Outline: (§1)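 Crop and weed responses were judged three weeks after a uniform surface spray of the water-diluted emulsion at the given g/ha rate. Seeds sat beneath about 1.5 cm of sterilized diluvial soil, and boxes stood in a greenhouse at 25 to 30° C.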

catchweed = assay: Test Example 4: weedkilling efficacy by foliar treatment; O: catchweed; details: treatment dosage 315 g/ha
Outline: (§2)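 Seeds are spot-sown into sterilized diluvial soil and covered with about 1.5 cm of soil. After 14 days' greenhouse growth at 25 to 30° C, plants are sprayed on stems and leaves with diluted emulsion at the stated g/ha rate, then scored at 3 weeks.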

soybean [2] = assay: Test Example 4: foliar treatment, effect on crop; d: soybean; details: treatment dosage 315 g/ha
Outline: as §2

chickweed [3] = assay: Test Example 3: weedkilling efficacy through soil treatment; N: chickweed; details: treatment dosage 315 g/ha
Outline: as §1

birds-eye speedwell = assay: Test Example 4: weedkilling efficacy by foliar treatment; p: birds-eye speedwell; details: treatment dosage 315 g/ha
Outline: as §2

directly sown rice [4] = assay: Test Example 4: foliar treatment, effect on crop; b: directly sown rice; details: treatment dosage 315 g/ha
Outline: as §2

corn [5] = assay: Test Example 4: foliar treatment, effect on crop; c: corn; details: treatment dosage 315 g/ha
Outline: as §2

barnyard grass [6] = assay: Test Example 1: weedkilling efficacy, preemergent weed treatment in the submerged state; A: barnyard grass; details: treatment dosage 252 g/ha
Outline: (§3)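 Pots of alluvial soil were flooded to a 4 cm depth. Mixed weed seeds were sown and 2.5 leaf-stage rice seedlings transplanted. On sowing day, water-diluted emulsion was applied to the water surface (dose in g/ha). After 3 weeks at 25–30 °C, effects were rated.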

redroot pigweed [7] = assay: Test Example 3: weedkilling efficacy through soil treatment; L: redroot pigweed; details: treatment dosage 315 g/ha
Outline: as §1

corn [8] = assay: Test Example 3: soil treatment, effect on crop; c: corn; details: treatment dosage 315 g/ha
Outline: as §1

Indian mallow [9] = assay: Test Example 4: weedkilling efficacy by foliar treatment; K: Indian mallow; details: treatment dosage 315 g/ha
Outline: as §2

black-grass [10] = assay: Test Example 4: weedkilling efficacy by foliar treatment; H: black-grass; details: treatment dosage 315 g/ha
Outline: as §2

black-grass [11] = assay: Test Example 3: weedkilling efficacy through soil treatment; H: black-grass; details: treatment dosage 315 g/ha
Outline: as §1

wild oat [12] = assay: Test Example 3: weedkilling efficacy through soil treatment; G: wild oat; details: treatment dosage 315 g/ha
Outline: as §1

fig-leafed goosefoot [13] = assay: Test Example 4: weedkilling efficacy by foliar treatment; M: fig-leafed goosefoot; details: treatment dosage 315 g/ha
Outline: as §2

bulrush [14] = assay: Test Example 2: weedkilling efficacy, growth period weed treatment in the submerged state; B: bulrush; details: treatment dosage 252 g/ha
Outline: (§4)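 Weeds treated at the 1-2 leaf stage by application of diluted emulsion onto floodwater (4 cm depth, alluvial soil) at specified g/ha. Grown in greenhouse at 25 to 30° C; herbicidal effect rated three weeks after treatment.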

crabgrass [15] = assay: Test Example 3: weedkilling efficacy through soil treatment; D: crabgrass; details: treatment dosage 315 g/ha
Outline: as §1

wheat [16] = assay: Test Example 4: foliar treatment, effect on crop; e: wheat; details: treatment dosage 315 g/ha
Outline: as §2

oval-leafed pondweed [17] = assay: Test Example 1: weedkilling efficacy, preemergent weed treatment in the submerged state; C: oval-leafed pondweed; details: treatment dosage 252 g/ha
Outline: as §3

Indian mallow [18] = assay: Test Example 3: weedkilling efficacy through soil treatment; K: Indian mallow; details: treatment dosage 315 g/ha
Outline: as §1

fig-leafed goosefoot [19] = assay: Test Example 3: weedkilling efficacy through soil treatment; M: fig-leafed goosefoot; details: treatment dosage 315 g/ha
Outline: as §1

chickweed [20] = assay: Test Example 4: weedkilling efficacy by foliar treatment; N: chickweed; details: treatment dosage 315 g/ha
Outline: as §2

Italian ryegrass [21] = assay: Test Example 4: weedkilling efficacy by foliar treatment; I: Italian ryegrass; details: treatment dosage 315 g/ha
Outline: as §2

wheat [22] = assay: Test Example 3: soil treatment, effect on crop; e: wheat; details: treatment dosage 315 g/ha
Outline: as §1

oval-leafed pondweed [23] = assay: Test Example 2: weedkilling efficacy, growth period weed treatment in the submerged state; C: oval-leafed pondweed; details: treatment dosage 252 g/ha
Outline: as §4

green foxtail [24] = assay: Test Example 3: weedkilling efficacy through soil treatment; E: green foxtail; details: treatment dosage 315 g/ha
Outline: as §1

barnyard grass [25] = assay: Test Example 2: weedkilling efficacy, growth period weed treatment in the submerged state; A: barnyard grass; details: treatment dosage 252 g/ha
Outline: as §4

green foxtail [26] = assay: Test Example 4: weedkilling efficacy by foliar treatment; E: green foxtail; details: treatment dosage 315 g/ha
Outline: as §2

bulrush [27] = assay: Test Example 1: weedkilling efficacy, preemergent weed treatment in the submerged state; B: bulrush; details: treatment dosage 252 g/ha
Outline: as §3

transplanted rice = assay: Test Example 1: preemergent weed treatment in the submerged state, effect on crop; a: transplanted rice; details: treatment dosage 252 g/ha
Outline: as §3

directly sown rice [28] = assay: Test Example 3: soil treatment, effect on crop; b: directly sown rice; details: treatment dosage 315 g/ha
Outline: as §1

beet [29] = assay: Test Example 3: soil treatment, effect on crop; f: beet; details: treatment dosage 315 g/ha
Outline: as §1

Italian ryegrass [30] = assay: Test Example 3: weedkilling efficacy through soil treatment; I: Italian ryegrass; details: treatment dosage 315 g/ha
Outline: as §1

beet [31] = assay: Test Example 4: foliar treatment, effect on crop; f: beet; details: treatment dosage 315 g/ha
Outline: as §2

redroot pigweed [32] = assay: Test Example 4: weedkilling efficacy by foliar treatment; L: redroot pigweed; details: treatment dosage 315 g/ha
Outline: as §2

wild oat [33] = assay: Test Example 4: weedkilling efficacy by foliar treatment; G: wild oat; details: treatment dosage 315 g/ha
Outline: as §2

crabgrass [34] = assay: Test Example 4: weedkilling efficacy by foliar treatment; D: crabgrass; details: treatment dosage 315 g/ha
Outline: as §2

CC1=C(c2ccccc2)C(=O)N(C(C)(C)C(=O)Nc2cc(Cl)cc(Cl)n2)CO1 [B-2-34]
d (soybean) effect on crop grade (soybean [1]): 1 (weed kill ratio 5% or more, less than 20%) | O (catchweed) weedkilling efficacy grade (catchweed): 0 (weed kill ratio 5% or less (practically no effect)) | d (soybean) effect on crop grade (soybean [2]): 5 (weed kill ratio 90% or more, (practically complete withering)) | N (chickweed) weedkilling efficacy grade (chickweed [3]): 5 (weed kill ratio 90% or more, (practically complete withering)) | P (birds-eye speedwell) weedkilling efficacy grade (birds-eye speedwell): 3 (weed kill ratio 40% or more, less than 70%) | b (directly sown rice) effect on crop grade (directly sown rice [4]): 5 (weed kill ratio 90% or more, (practically complete withering)) | c (corn) effect on crop grade (corn [5]): 3 (weed kill ratio 40% or more, less than 70%) | A (barnyard grass) weedkilling efficacy grade (barnyard grass [6]): 5 (weed kill ratio 90% or more, (practically complete withering)) | L (redroot pigweed) weedkilling efficacy grade (redroot pigweed [7]): 5 (weed kill ratio 90% or more, (practically complete withering)) | c (corn) effect on crop grade (corn [8]): 2 (weed kill ratio 20% or more, less than 40%) | K (Indian mallow) weedkilling efficacy grade (Indian mallow [9]): 5 (weed kill ratio 90% or more, (practically complete withering)) | H (black-grass) weedkilling efficacy grade (black-grass [10]): 5 (weed kill ratio 90% or more, (practically complete withering)) | H (black-grass) weedkilling efficacy grade (black-grass [11]): 5 (weed kill ratio 90% or more, (practically complete withering)) | G (wild oat) weedkilling efficacy grade (wild oat [12]): 5 (weed kill ratio 90% or more, (practically complete withering)) | M (fig-leafed goosefoot) weedkilling efficacy grade (fig-leafed goosefoot [13]): 3 (weed kill ratio 40% or more, less than 70%) | B (bulrush) weedkilling efficacy grade (bulrush [14]): 5 (weed kill ratio 90% or more, (practically complete withering)) | D (crabgrass) weedkilling efficacy grade (crabgrass [15]): 5 (weed kill ratio 90% or more, (practically complete withering)) | e (wheat) effect on crop grade (wheat [16]): 1 (weed kill ratio 5% or more, less than 20%) | C (oval-leafed pondweed) weedkilling efficacy grade (oval-leafed pondweed [17]): 5 (weed kill ratio 90% or more, (practically complete withering)) | K (Indian mallow) weedkilling efficacy grade (Indian mallow [18]): 5 (weed kill ratio 90% or more, (practically complete withering)) | M (fig-leafed goosefoot) weedkilling efficacy grade (fig-leafed goosefoot [19]): 4 (weed kill ratio 70% or more, less than 90%) | N (chickweed) weedkilling efficacy grade (chickweed [20]): 3 (weed kill ratio 40% or more, less than 70%) | I (Italian ryegrass) weedkilling efficacy grade (Italian ryegrass [21]): 5 (weed kill ratio 90% or more, (practically complete withering)) | e (wheat) effect on crop grade (wheat [22]): 1 (weed kill ratio 5% or more, less than 20%) | C (oval-leafed pondweed) weedkilling efficacy grade (oval-leafed pondweed [23]): 5 (weed kill ratio 90% or more, (practically complete withering)) | E (green foxtail) weedkilling efficacy grade (green foxtail [24]): 5 (weed kill ratio 90% or more, (practically complete withering)) | A (barnyard grass) weedkilling efficacy grade (barnyard grass [25]): 5 (weed kill ratio 90% or more, (practically complete withering)) | E (green foxtail) weedkilling efficacy grade (green foxtail [26]): 5 (weed kill ratio 90% or more, (practically complete withering)) | B (bulrush) weedkilling efficacy grade (bulrush [27]): 5 (weed kill ratio 90% or more, (practically complete withering)) | a (transplanted rice) effect on crop grade (transplanted rice): 0 (weed kill ratio 5% or less (practically no effect)) | b (directly sown rice) effect on crop grade (directly sown rice [28]): 5 (weed kill ratio 90% or more, (practically complete withering)) | f (beet) effect on crop grade (beet [29]): 5 (weed kill ratio 90% or more, (practically complete withering)) | I (Italian ryegrass) weedkilling efficacy grade (Italian ryegrass [30]): 5 (weed kill ratio 90% or more, (practically complete withering)) | f (beet) effect on crop grade (beet [31]): 4 (weed kill ratio 70% or more, less than 90%) | L (redroot pigweed) weedkilling efficacy grade (redroot pigweed [32]): 4 (weed kill ratio 70% or more, less than 90%) | G (wild oat) weedkilling efficacy grade (wild oat [33]): 5 (weed kill ratio 90% or more, (practically complete withering)) | D (crabgrass) weedkilling efficacy grade (crabgrass [34]): 5 (weed kill ratio 90% or more, (practically complete withering))

CC1=C(c2ccccc2)C(=O)N(C(C)(C)C(=O)Nc2ccnc(Cl)c2)CO1 [B-4-03]
d (soybean) effect on crop grade (soybean [1]): 3 (weed kill ratio 40% or more, less than 70%) | O (catchweed) weedkilling efficacy grade (catchweed): 5 (weed kill ratio 90% or more, (practically complete withering)) | d (soybean) effect on crop grade (soybean [2]): 4 (weed kill ratio 70% or more, less than 90%) | N (chickweed) weedkilling efficacy grade (chickweed [3]): 3 (weed kill ratio 40% or more, less than 70%) | P (birds-eye speedwell) weedkilling efficacy grade (birds-eye speedwell): 4 (weed kill ratio 70% or more, less than 90%) | b (directly sown rice) effect on crop grade (directly sown rice [4]): 5 (weed kill ratio 90% or more, (practically complete withering)) | c (corn) effect on crop grade (corn [5]): 4 (weed kill ratio 70% or more, less than 90%) | A (barnyard grass) weedkilling efficacy grade (barnyard grass [6]): 5 (weed kill ratio 90% or more, (practically complete withering)) | L (redroot pigweed) weedkilling efficacy grade (redroot pigweed [7]): 5 (weed kill ratio 90% or more, (practically complete withering)) | c (corn) effect on crop grade (corn [8]): 2 (weed kill ratio 20% or more, less than 40%) | K (Indian mallow) weedkilling efficacy grade (Indian mallow [9]): 4 (weed kill ratio 70% or more, less than 90%) | H (black-grass) weedkilling efficacy grade (black-grass [10]): 5 (weed kill ratio 90% or more, (practically complete withering)) | H (black-grass) weedkilling efficacy grade (black-grass [11]): 5 (weed kill ratio 90% or more, (practically complete withering)) | G (wild oat) weedkilling efficacy grade (wild oat [12]): 4 (weed kill ratio 70% or more, less than 90%) | M (fig-leafed goosefoot) weedkilling efficacy grade (fig-leafed goosefoot [13]): 3 (weed kill ratio 40% or more, less than 70%) | B (bulrush) weedkilling efficacy grade (bulrush [14]): 5 (weed kill ratio 90% or more, (practically complete withering)) | D (crabgrass) weedkilling efficacy grade (crabgrass [15]): 5 (weed kill ratio 90% or more, (practically complete withering)) | e (wheat) effect on crop grade (wheat [16]): 0 (weed kill ratio 5% or less (practically no effect)) | C (oval-leafed pondweed) weedkilling efficacy grade (oval-leafed pondweed [17]): 5 (weed kill ratio 90% or more, (practically complete withering)) | K (Indian mallow) weedkilling efficacy grade (Indian mallow [18]): 3 (weed kill ratio 40% or more, less than 70%) | M (fig-leafed goosefoot) weedkilling efficacy grade (fig-leafed goosefoot [19]): 5 (weed kill ratio 90% or more, (practically complete withering)) | N (chickweed) weedkilling efficacy grade (chickweed [20]): 1 (weed kill ratio 5% or more, less than 20%) | I (Italian ryegrass) weedkilling efficacy grade (Italian ryegrass [21]): 5 (weed kill ratio 90% or more, (practically complete withering)) | e (wheat) effect on crop grade (wheat [22]): 1 (weed kill ratio 5% or more, less than 20%) | C (oval-leafed pondweed) weedkilling efficacy grade (oval-leafed pondweed [23]): 4 (weed kill ratio 70% or more, less than 90%) | E (green foxtail) weedkilling efficacy grade (green foxtail [24]): 5 (weed kill ratio 90% or more, (practically complete withering)) | A (barnyard grass) weedkilling efficacy grade (barnyard grass [25]): 4 (weed kill ratio 70% or more, less than 90%) | E (green foxtail) weedkilling efficacy grade (green foxtail [26]): 5 (weed kill ratio 90% or more, (practically complete withering)) | B (bulrush) weedkilling efficacy grade (bulrush [27]): 5 (weed kill ratio 90% or more, (practically complete withering)) | a (transplanted rice) effect on crop grade (transplanted rice): 4 (weed kill ratio 70% or more, less than 90%) | f (beet) effect on crop grade (beet [29]): 4 (weed kill ratio 70% or more, less than 90%) | I (Italian ryegrass) weedkilling efficacy grade (Italian ryegrass [30]): 5 (weed kill ratio 90% or more, (practically complete withering)) | f (beet) effect on crop grade (beet [31]): 4 (weed kill ratio 70% or more, less than 90%) | L (redroot pigweed) weedkilling efficacy grade (redroot pigweed [32]): 3 (weed kill ratio 40% or more, less than 70%) | G (wild oat) weedkilling efficacy grade (wild oat [33]): 5 (weed kill ratio 90% or more, (practically complete withering)) | D (crabgrass) weedkilling efficacy grade (crabgrass [34]): 5 (weed kill ratio 90% or more, (practically complete withering))
